Values quoted from earlier work, collected in patent US11648199B2 (AI Therapeutics, Inc, priority 2014, dated 2023).

Columns and labels:
[1] = clinical use; cited from earlier work
[2] = cancer patients administered temsirolimus or everolimus; cited from earlier work

## C=CC[C@@H]1/C=C(\C)C[C@H](C)C[C@H](OC)[C@H]2O[C@@](O)(C(=O)C(=O)N3CCCC[C@H]3C(=O)O[C@H](/C(C)=C/[C@@H]3CC[C@@H](O)[C@H](OC)C3)[C@H](C)[C@@H](O)CC1=O)[C@H](C)C[C@@H]2OC [tacrolimus]
[1]
  lung toxicity: did not show lung toxicity

## CO[C@H]1C[C@@H]2CC[C@@H](C)[C@@](O)(O2)C(=O)C(=O)N2CCCC[C@H]2C(=O)O[C@H]([C@H](C)C[C@@H]2CC[C@@H](OCCO)[C@H](OC)C2)CC(=O)[C@H](C)/C=C(\C)[C@@H](O)[C@@H](OC)C(=O)[C@H](C)C[C@H](C)/C=C/C=C/C=C/1C [everolimus]
[2]
  patients who may experience mild grade pulmonary toxicity: 10%

## CO[C@H]1C[C@@H]2CC[C@@H](C)[C@@](O)(O2)C(=O)C(=O)N2CCCC[C@H]2C(=O)O[C@H]([C@H](C)C[C@@H]2CC[C@@H](OC(=O)C(C)(CO)CO)[C@H](OC)C2)CC(=O)[C@H](C)/C=C(\C)[C@@H](O)[C@@H](OC)C(=O)[C@H](C)C[C@H](C)/C=C/C=C/C=C/1C [temsirolimus]
[2]
  patients who may experience mild grade pulmonary toxicity: 10%
